# Assay results as given in patent US7129368B2, “Platinum carboxylate anticancer compounds” (Sonus Pharmaceuticals, Inc., priority 2004, dated 2006).
# Tests used:
# [1] = test system: HCT-116 colorectal carcinoma cells; assay: ALAMAR BLUE cytotoxicity assay in HCT-116 cells; format: cell-based; details: HCT-116, ALAMAR BLUE, 48 hours incubation with drug
# Method: (§1) ALAMAR BLUE Assay. […] Cytotoxicity was measured in two cell lines: a colorectal carcinoma cell line (HCT-116); and a non-small cell lung cancer cell line (NCI-H460). The marker used to quantify cell growth inhibition was ALAMAR BLUE, a non-fluorescent blue dye that is reduced to a fluorescent red product by viable cells. The amount of fluorescence is proportional to the number of viable cells.
# (§2) Screening in HCT-116 cells. HCT-116 colorectal carcinoma cells (ATCC # CCL-247) were inoculated into a set of twenty-four 96-well microtiter plates containing 100 μl of McCoy's 5A media (HyClone, Logan, Utah) per well to a plating density of 7500 cells per well. After cell inoculation, the microtiter plates were incubated at 37° C., 5% CO2, 95% air and 100% relative humidity for 24 hours. After 24 hours incubation, ALAMAR BLUE reagent (Biosource, Camarillo, Calif.) was added to two plates to a final concentration of 10% v/v in each well. The plates were returned to the incubator for 4 hours and then read in a Perkin Elmer HTS 7000 Bio Assay Reader using an excitation wavelength of 535 nm and an emission wavelength of 590 nm to determine the cell population at the time of drug addition—time zero.
# (§3) Two no-drug control plates were also prepared.
# (§4) Following drug addition, the plates were incubated for an additional 48 hours at the conditions above.
# (§5) After 48 hours of incubation the plates were removed and ALAMAR BLUE reagent was added to a final concentration of 10% v/v to each well. The plates were returned to the incubator for 4 hours and read in the Bio Assay Reader as described above.
# [2] = test system: NCI-H460 non-small cell lung cancer cells; assay: ALAMAR BLUE cytotoxicity assay in NCI-H460 cells; format: cell-based; details: H-460, ALAMAR BLUE, 48 hours incubation with drug
# Method: as §1, §2, §3, §4, §5
# Screening in NCI-H460 cells. The screening protocol above was repeated using NCI-H460 non-small cell lung cancer cells (ATCC # HTB-177) plated to a density of 10,000 cells per well in RPMI media (Mediatech, Inc., Herndon, Va.).
# [3] = test system: HT29 colorectal carcinoma cell line; assay: MTS cytotoxicity assay in HT29 cells; format: cell-based; details: 72 hours of treatment, read-out: Growth Inhibition (GI50)
# Method: (§6) MTS Assay. […] Cytotoxicity was measured in six cell lines: two colorectal carcinoma cell lines, HT29 (ATCC # CCL-218) and HCT-116 (ATCC # CCL-247); two small cell lung cancer cell lines, NCI-H69 (ATCC # HTB-119) and NCI-H69/AR (ATCC # CRL-11351); and two ovarian cancer cell lines, A2780 (ECACC # 93112519) and A2780/DPPt (similar strain, A2780 cis, available at ECACC # 93112517). Viable cell number was measured using the MTS cell viability assay ([…] 96 AQueous One Solution Cell Proliferation Assay kit available from Promega, USA). Cell growth inhibition was quantified by measuring absorbance at 490 nm, which is directly proportional to the number of living cells in culture.
# (§7) The platinum compounds were prepared as 10 mM stock solutions in water containing 5% dextrose (D5W). Cisplatin was prepared in saline. Dosing solutions were prepared by serial dilution of the stock solutions in cell culture medium to provide final concentrations of 0.006–100 μM.
# (§8) All tumor lines were propagated under sterile conditions and incubated at 37° C. in HEPA-filtered CO2 tissue culture incubators with 5% CO2 and 95% humidity in colorless RPMI 1640 medium (Mediatech, Hemdon, Va.) containing 5% fetal bovine serum (complete medium). […]
# (§9) Viable cell number was measured by the MTS dye conversion assay after a total of 72 hours of treatment. […] The absorbance was measured at 490 nm on a Coulter microplate reader.
# [4] = test system: HCT-116 colorectal carcinoma cell line; assay: MTS cytotoxicity assay in HCT-116 cells; format: cell-based; details: HCT-116, MTS, 72 hours of treatment; read-out: Growth Inhibition (GI50)
# Method: as §6, §7, §8, §9
# [5] = test system: NCI-H69 small cell lung cancer cell line; assay: MTS cytotoxicity assay in NCI-H69 cells; format: cell-based; details: 72 hours of treatment, read-out: Growth Inhibition (GI50)
# Method: as §6, §7, §8, §9
# [6] = test system: NCI-H69/AR small cell lung cancer cell line; assay: MTS cytotoxicity assay in NCI-H69/AR cells; format: cell-based; details: 72 hours of treatment, read-out: Growth Inhibition (GI50)
# Method: as §6, §7, §8, §9
# [7] = test system: A2780 ovarian cancer cell line; assay: MTS cytotoxicity assay in A2780 cells; format: cell-based; details: 72 hours of treatment, read-out: Growth Inhibition (GI50)
# Method: as §6, §7, §8, §9
# [8] = test system: A2780/DPPt ovarian cancer cell line; assay: MTS cytotoxicity assay in A2780/DPPt cells; format: cell-based; details: A2780/DDPT, 72 hours of treatment, read-out: Growth Inhibition (GI50)
# Method: MTS Assay. […] Cytotoxicity was measured in six cell lines: two colorectal carcinoma cell lines, HT29 (ATCC # CCL-218) and HCT-116 (ATCC # CCL-247); two small cell lung cancer cell lines, NCI-H69 (ATCC # HTB-119) and NCI-H69/AR (ATCC # CRL-11351); and two ovarian cancer cell lines, A2780 (ECACC # 93112519) and A2780/DPPt (similar strain, A2780 cis, available at ECACC # 93112517). Viable cell number was measured using the MTS cell viability assay ([sequence] 96 AQueous One Solution Cell Proliferation Assay kit available from Promega, USA). Cell growth inhibition was quantified by measuring absorbance at 490 nm, which is directly proportional to the number of living cells in culture.
# [9] = Effect of pH on CDTA-diplatinum/CDTA-monoplatinum interconversion (HPLC); format: physicochemical
# Method: Cyclohexane-trans-1,2-diaminetetraacetic-acid-diplatinum (CDTA-diplatinum) was prepared according to Example 1. Three solutions of CDTA-diplatinum were prepared: 1 mg/ml in water (pH ˜6.5) (Solution 1); 1 mg/ml in 0.01 N NaOH (pH˜9.5) (Solution 2); and 1 mg/ml in 0.01 N HCl (pH˜2) (Solution 3).
# [10] = Solution 1: 1 mg/ml in water (pH ~6.5)
# [11] = Solution 2: 1 mg/ml in 0.01 N NaOH (pH ~9.5)
# [12] = Solution 3: 1 mg/ml in 0.01 N HCl (pH ~2)
Compound,GI50 [1] [µM],GI50 [2] [µM],GI50 [3] [µM],GI50 [4] [µM],GI50 [5] [µM],GI50 [6] [µM],GI50 [7] [µM],GI50 [8] [µM],"percentage of species by HPLC in a solution of CDTA-diplatinum (Example 1) [9, 10] [%]","percentage of species by HPLC in a solution of CDTA-diplatinum (Example 1) [9, 11] [%]","percentage of species by HPLC in a solution of CDTA-diplatinum (Example 1) [9, 12] [%]"
"N.N.O=C([O-])C1(C(=O)[O-])CCC1.[Pt+2] [Carboplatin, cis-diamine[1,1-cyclobutanedicarboxylato(2-)]—O,O′-platinum (II), reference compound]",159,9,–,–,–,–,–,–,–,–,–
"N.N.[Cl][Pt][Cl] [Cisplatin, cis-[PtCl2(NH3)2], reference compound]",4,469,–,–,–,–,–,–,–,–,–
"cyclohexane-trans-1,2-diaminetetraacetic-acid-diplatinum [CDTA-diplatinum]",0.55,0.371,78,24,6.69,8.9,5.45,49,54,1,2
"cyclohexane-trans-1,2-diaminetetraacetic-acid-monoplatinum [CDTA-monoplatinum]",6.4,9.71,65,38,10,18,5.57,–,45,99,98
